One series deals with alpha2. In words: alpha2-agonist activity in isolated guinea pig atrial tissue.
In a further series the test system is alpha1. In words: alpha1-agonist activity in superfused rabbit ear artery segment. The conditions noted are these: read-out: EC50-α1, acid addition salt form.
Series [1] addresses T1, presynaptic dopaminergic (DA2) receptor (Oryctolagus cuniculus, UniProt G1T1Q0). The experiment in a line: stimulation-evoked 3H-norepinephrine release from prelabelled rabbit ear artery (DA2).
In series [2] the target is T1, presynaptic dopaminergic (DA2) receptor.
Method: (§1) The procedure measures the ability of the test compound to inhibit the constrictor response of isolated perfused rabbit ear artery caused by field stimulation of its adrenergic nerve terminals. Activity in this test is, then, compared with undesired alpha1 -agonist activity which is determined in the superfused rabbit ear artery segment.
Series [3] has as its system presynaptic dopaminergic (DA2) receptor. The conditions noted are these: for vasoconstriction observed during the tests (alpha1-mediated): rabbit ear artery, Compound B at 300 nM in the effector response test.
Method: as §1
Series [4] deals with adenylate cyclase in the caudate nucleus. The conditions noted are these: compared with dopamine; cited from earlier work.

By pEC50 is commonly meant the negative decadic logarithm of the EC50, by convention in mol/L.

pEC50: −log10 of the molar value. Read-outs that look alike come from different tables or passages of the source.

T1 sequence (G1T1Q0 1-443): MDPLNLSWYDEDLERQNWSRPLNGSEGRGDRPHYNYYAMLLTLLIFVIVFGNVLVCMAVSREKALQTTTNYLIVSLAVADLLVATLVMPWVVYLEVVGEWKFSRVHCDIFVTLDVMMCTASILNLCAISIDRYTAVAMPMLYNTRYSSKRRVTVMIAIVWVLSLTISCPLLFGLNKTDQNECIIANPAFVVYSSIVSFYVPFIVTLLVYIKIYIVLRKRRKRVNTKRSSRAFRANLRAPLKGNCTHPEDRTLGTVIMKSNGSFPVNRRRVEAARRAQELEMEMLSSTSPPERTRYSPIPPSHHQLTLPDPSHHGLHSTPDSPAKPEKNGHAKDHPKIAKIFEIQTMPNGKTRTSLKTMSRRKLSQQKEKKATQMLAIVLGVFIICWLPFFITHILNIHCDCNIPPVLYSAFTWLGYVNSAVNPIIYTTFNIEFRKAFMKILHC
Method for alpha1: as §1

As for `CS(=O)(=O)Nc1cc(CCN)ccc1O` [Compound B], the alpha2-agonist activity result in the series with alpha2 is on record as “significant α2 -activity”. The figures for the pEC50 (with alpha1; in series [1]; in series [2]) were 6.45, 5.52 and under 6.52, respectively. Further, the “vasoconstriction observed during the tests (alpha1-mediated)” value in series [3] is listed as “vasoconstriction was observed”.
In the case of `CNCCc1ccc(O)c(NS(C)(=O)=O)c1` [Compound C], the alpha2-agonist activity entry in the series on alpha2 is recorded as “significant α2 -activity”. The pEC50 in the series on alpha1 is 7.60; in series [1] it was 6.52; in series [2] it was under 7.52. The “vasoconstriction observed during the tests (alpha1-mediated)” value in series [3] is recorded as “demonstrates vasoconstriction as a result of alpha1 -agonist activity”.
`CC(C)NCCc1ccc(O)c(NS(C)(=O)=O)c1` [D]: the pEC50 is 5.70 in the series with alpha1 and under 6.00 in series [2].
Regarding `CS(=O)(=O)Nc1cc(CCN)ccc1O` [3-methylsulfonamido analogue of dopamine], the “agonist activity for adenylate cyclase” value in series [4] is reported as “weaker than was dopamine itself”.
For `CCCN(CCC)CCc1ccc(O)c(NS(C)(=O)=O)c1` [Compound A], the alpha2-agonist activity entry in the series on alpha2 is given as “no alpha2 -agonist activity”. For the same compound, the pEC50 with alpha1 was 6.12; in series [1], 8.00; in series [2] it was 8.70. In series [3] (from DA2 EC50 vs alpha1 EC50), the “selectivity for peripheral DA2 receptor sites over alpha1” value is recorded as “high selectivity for the desired peripheral DA2 receptor sites”. In series [3], the “vasoconstriction observed during the tests (alpha1-mediated)” value was “No alpha1 -mediated vasoconstriction was observed”.
Turning to `CCCN(CCC)CCc1cccc(NS(C)(=O)=O)c1` [F], in series [2], the pEC50 is 6.40.
Same read-out and setting: then `CS(=O)(=O)Nc1cccc(CCN)c1` [G], with under 6.00; and `CCCN(CCC)CCc1ccc(O)c(NS(=O)(=O)C(F)(F)F)c1` [E], with under 6.00.

Source of the values: US4507320A.
